Test results: ChEMBL document CHEMBL5252612, “A novel selective estrogen receptor degrader induces cell cycle arrest in breast cancer via ERα degradation and the autophagy-lysosome pathway” (Bioorg Med Chem, 2023)
Calls of active or inactive are those of the source. The calls are words filed in the database; no cut-off is given here.

Legend:
T47D [1] = experiment: Induction of apoptosis and necrosis in human T47D cells assessed as live cells at 10 uM incubated for 48 hrs by AnnexinV-FITC/PI staining based flow cytometry (reference value: 96.26%); format: functional
T47D [2] = experiment: Induction of cell cycle arrest in human T47D cells overexpressing MYC assessed as proportion of cells at G1 phase at 10 uM incubated for 24 hrs by flow cytometry (reference value: 22.1%); format: functional
T47D [3] = experiment: Induction of autophagy in human T47D cells assessed as downregulation of MYC protein expression at 5 to 10 uM incubated for 24 hrs in presence of autophagy inhibitor, CQ by western blot analysis; format: functional, cell-based; conditions: dose 5-10 µM
T47D [4] = experiment: Induction of autophagy in human T47D cells assessed as increase in number of lysosomes at 1 to 10 uM by LysoTracker dye based confocal microscopy; format: functional, cell-based; conditions: dose 1-10 µM
T47D [5] = experiment: Induction of autophagy in human T47D cells assessed as increase in LC3 puncta formation at 1 to 10 uM incubated for 24 hrs in presence of chloroquine by immunofluorescence assay; format: functional, cell-based; conditions: dose 1-10 µM
T47D [6] = experiment: Induction of autophagy in human T47D cells overexpressing ESR1 assessed as increase in lysosome number by LysoTracker dye based confocal microscopy; format: functional, cell-based
T47D [7] = experiment: Induction of cell cycle arrest in human T47D cells transfected with empty vector assessed as proportion of cells at G2 phase at 10 uM incubated for 24 hrs by flow cytometry (reference value: 53%); format: functional
MCF7 [8] = experiment: Antitumor activity against human MCF7 cells xenografted in BALB/c nude mouse assessed as reduction in tumor volume at 2 to 4 mg/kg, ip administered every other day by caliper analysis; format: functional, organism-based; conditions: dose 2-4 mg/kg
MCF7 [9] = experiment: Antitumor activity against human MCF7 cells xenografted in BALB/c nude mouse assessed as reduction in tumor weight at 2 to 4 mg/kg, ip administered every other day; format: functional, organism-based; conditions: dose 2-4 mg/kg
[10] = target: T1, Estrogen receptor (Homo sapiens) (UniProt P03372); experiment: Induction of ER-alpha degradation in human T47D cells overexpressing ER-alpha assessed as decrease in MYC protein expression at 10 uM incubated for 24 hrs by western blot analysis; format: cell-based
T1 sequence (whole entry): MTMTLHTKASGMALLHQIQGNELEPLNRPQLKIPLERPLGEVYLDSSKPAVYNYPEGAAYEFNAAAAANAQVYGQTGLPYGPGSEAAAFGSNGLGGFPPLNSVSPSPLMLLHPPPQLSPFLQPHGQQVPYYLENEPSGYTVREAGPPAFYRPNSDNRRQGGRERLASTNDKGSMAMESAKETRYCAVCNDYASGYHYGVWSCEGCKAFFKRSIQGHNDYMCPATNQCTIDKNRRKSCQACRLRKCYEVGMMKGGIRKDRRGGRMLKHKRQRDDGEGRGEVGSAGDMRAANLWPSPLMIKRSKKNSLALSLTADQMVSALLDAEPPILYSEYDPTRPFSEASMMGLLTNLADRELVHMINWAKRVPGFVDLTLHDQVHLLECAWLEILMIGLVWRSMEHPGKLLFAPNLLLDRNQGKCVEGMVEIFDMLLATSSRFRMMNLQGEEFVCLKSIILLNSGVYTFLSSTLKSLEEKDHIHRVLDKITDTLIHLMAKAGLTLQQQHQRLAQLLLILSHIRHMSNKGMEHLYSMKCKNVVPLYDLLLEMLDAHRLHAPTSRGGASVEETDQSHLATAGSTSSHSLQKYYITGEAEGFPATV

T47D [11] = experiment: Anticancer activity against ER-alpha positive human T47D cells assessed as reduction in cell viability at 10 uM measured after 48 hrs in presence of autophagy inhibitor, 3-MA by CCK8 assay; format: functional, cell-based
T47D [12] = experiment: Induction of autophagy in human T47D cells assessed as increase in LC3 protein expression at 5 to 10 uM incubated for 24 hrs in presence of chloroquine by western blot analysis; format: functional, cell-based; conditions: dose 5-10 µM
T47D [13] = experiment: Inhibition of colony formation in human T47D cells at 1 to 5 uM incubated for 14 days by crystal violet staining based analysis; format: functional, cell-based; conditions: dose 1-5 µM, time 14.0 day
MCF7 [14] = experiment: Induction of apoptosis in human MCF7 cells at 10 uM incubated for 48 hrs by TUNEL assay; format: functional, cell-based
T47D [15] = experiment: Anticancer activity against ER-alpha positive human T47D cells assessed as reduction in cell viability measured after 48 hrs by CCK8 assay; format: functional, cell-based
MCF7 [16] = experiment: Induction of cell cycle arrest in human MCF7 cells assessed as proportion of cells at G1 phase at 5 uM incubated for 24 hrs by flow cytometry (reference value: 46.3%); format: functional
T47D [17] = experiment: Induction of cell cycle arrest in human T47D cells transfected with empty vector assessed as proportion of cells at S phase at 10 uM incubated for 24 hrs by flow cytometry (reference value: 25.9%); format: functional
T47D [18] = experiment: Induction of apoptosis and necrosis in human T47D cells incubated for 48 hrs by AnnexinV-FITC/PI staining based flow cytometry (reference value: 3.73%); format: functional
MCF7 [19] = experiment: Induction of cell cycle arrest in human MCF7 cells assessed as proportion of cells at S phase at 1 uM incubated for 24 hrs by flow cytometry (reference value: 27.6%); format: functional
T47D [20] = experiment: Induction of autophagy in human T47D cells assessed as decrease in p62 protein expression at 5 to 10 uM incubated for 24 hrs by western blot analysis; format: functional, cell-based; conditions: dose 5-10 µM

**Q.** `COc1ccc(N(CC(F)(F)F)S(=O)(=O)C2CC3OC2C(c2ccc(OCCN4CCCC4)cc2)=C3c2ccc(O)cc2)cc1` (stereo unspecified) was tested. Which Activity (T47D [1]) did it give?
**A.** Its Activity is 93.26%.

**Q.** What about the Activity (T47D [2]) of the same compound?
**A.** Its Activity is 20.6%.

**Q.** What about the Activity (T47D [3]) of the same compound?
**A.** The Activity was “inactive”.

**Q.** And the Activity (T47D [4])?
**A.** The Activity was “Active”.

**Q.** And the Activity (T47D [5])?
**A.** The Activity was “Active”.

**Q.** What about the Activity (T47D [6]) of the same compound?
**A.** Its Activity is “Active”.

**Q.** What about the Activity (T47D [7]) of the same compound?
**A.** Its Activity is 33.7%.

**Q.** What about the Activity (MCF7 [8]) of the same compound?
**A.** Its Activity is “Active”.

**Q.** And the Activity (MCF7 [9])?
**A.** Its Activity is “Active”.

**Q.** What about the Activity [10] of the same compound?
**A.** The Activity was “inactive”.

**Q.** What about the Activity (T47D [11]) of the same compound?
**A.** The Activity was “inactive”.

**Q.** And the Activity (T47D [12])?
**A.** The Activity was “Active”.

**Q.** What about the inhibition (T47D [13]) of the same compound?
**A.** Its inhibition is “Active”.

**Q.** What about the Activity (MCF7 [14]) of the same compound?
**A.** Its Activity is “Active”.

**Q.** And the Activity (T47D [15])?
**A.** Its Activity is “Dose-Dependent Effect”.

**Q.** And the IC50 (T47D [15])?
**A.** Its IC50 is 18.1 µM.

**Q.** What about the Activity (MCF7 [16]) of the same compound?
**A.** Its Activity is 65.1%.

**Q.** And the Activity (T47D [17])?
**A.** Its Activity is 22.8%.

**Q.** What about the Activity (T47D [18]) of the same compound?
**A.** The Activity was 21.43%.

**Q.** What about the Activity (MCF7 [19]) of the same compound?
**A.** Its Activity is 15.7%.

**Q.** What about the Activity (T47D [20]) of the same compound?
**A.** Its Activity is “Active”.
